# Like-named read-outs stand apart in the source and are kept apart here.
# Tests used:
# [1] = molecular target: GSK3α (GST-full length GSK3α) (Homo sapiens (Human), UniProt P49840); assay: GSK3α TR-FRET kinase assay; type: biochemical
# How it was run: (§1)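 IC50 came from the normalized 665/615 nm TR-FRET ratio plotted against log compound concentration. The Tb-labelled pSer641 antibody and streptavidin-d2 detected phosphorylation of biotinylated S645-primed glycogen synthase peptide (200 nM) by 1 nM full-length GST-kinase. ATP was 4 μM for α, 2 μM for β, or 1 mM.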
# [2] = molecular target: GSK3b (GST-full length GSK3b) (Homo sapiens (Human), UniProt P49841); assay: GSK3b TR-FRET kinase assay; type: biochemical
# How it was run: as §1
# [3] = 1 nM GSK3α, 4 μM ATP, 30 minute preincubation, Table 16, read-out: GSK3-A TR-FRET BIOCHEMICAL (TR-FRET), IC50
# [4] = 1 nM GSK3b, 2 μM ATP, 30 minute preincubation, Table 16, read-out: GSK3-B TR-FRET BIOCHEMICAL (TR-FRET), IC50
# [5] = 1 nM GSK3α, 4 μM ATP, 30 minute preincubation, read-out: GSK3-A TR-FRET BIOCHEMICAL (TR-FRET), IC50
# [6] = 1 nM GSK3b, 2 μM ATP, 30 minute preincubation, read-out: GSK3-B TR-FRET BIOCHEMICAL (TR-FRET), IC50
# [7] = GSK3-A (TR-FRET 1 mM ATP), GMean, IC50, 1 mM ATP, geometric mean
# [8] = GSK3-B (TR-FRET 1 mM ATP), GMean, IC50, 1 mM ATP, geometric mean
# [9] = 1 nM GSK3α, 4 μM ATP, 30 minute preincubation, Table 16, read-out: GSK3-A TR-FRET BIOCHEMICAL (TR-FRET)
# [10] = 1 nM GSK3b, 2 μM ATP, 30 minute preincubation, Table 16, read-out: GSK3-B TR-FRET BIOCHEMICAL (TR-FRET)
# Sequence of GSK3α (GST-full length GSK3α) (P49840 whole entry): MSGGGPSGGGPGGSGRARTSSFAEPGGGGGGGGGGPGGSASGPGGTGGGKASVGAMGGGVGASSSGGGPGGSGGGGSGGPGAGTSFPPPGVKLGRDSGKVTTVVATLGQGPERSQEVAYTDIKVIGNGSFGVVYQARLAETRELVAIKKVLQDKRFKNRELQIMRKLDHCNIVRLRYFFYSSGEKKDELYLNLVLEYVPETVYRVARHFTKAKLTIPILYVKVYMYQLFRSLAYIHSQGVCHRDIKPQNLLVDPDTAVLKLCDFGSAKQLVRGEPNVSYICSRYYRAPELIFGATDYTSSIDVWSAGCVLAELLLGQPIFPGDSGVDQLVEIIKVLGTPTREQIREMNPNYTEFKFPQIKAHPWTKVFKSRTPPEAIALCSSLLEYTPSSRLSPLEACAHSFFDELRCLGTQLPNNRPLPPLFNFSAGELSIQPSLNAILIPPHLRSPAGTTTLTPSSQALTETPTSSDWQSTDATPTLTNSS
# Sequence of GSK3b (GST-full length GSK3b) (P49841 whole entry): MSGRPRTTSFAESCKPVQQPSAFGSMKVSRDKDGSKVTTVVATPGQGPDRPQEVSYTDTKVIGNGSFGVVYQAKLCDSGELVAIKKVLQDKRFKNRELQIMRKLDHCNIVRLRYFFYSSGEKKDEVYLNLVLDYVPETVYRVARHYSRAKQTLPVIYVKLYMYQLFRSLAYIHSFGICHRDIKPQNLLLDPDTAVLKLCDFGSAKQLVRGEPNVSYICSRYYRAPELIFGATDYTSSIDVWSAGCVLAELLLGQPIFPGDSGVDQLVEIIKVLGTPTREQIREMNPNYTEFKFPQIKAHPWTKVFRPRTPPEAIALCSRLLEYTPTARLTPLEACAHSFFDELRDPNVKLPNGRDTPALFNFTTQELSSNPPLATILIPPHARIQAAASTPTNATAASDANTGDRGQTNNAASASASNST
Compound,"IC50 [1, 3]","IC50 [2, 4]",also measured
CCC1(c2cccc(N(C)c3ccncn3)c2)C2=C(CC(C)(C)CC2=O)Nc2n[nH]cc21 (centres unmarked) [Compound 902970],≤ 0.1 µM,0.1 to 1 µM,
CCC1(c2cccc(N(C)c3cnccn3)c2)C2=C(CC(C)(C)CC2=O)Nc2n[nH]cc21 (centres unmarked) [Compound 902971],≤ 0.1 µM,≤ 0.1 µM,
CC1(C)CC(=O)C2=C(C1)Nc1n[nH]cc1[C@@]21CCOC2(CCCC2)C1 [Compound 907326],,,"IC50 [1, 5]: 0.1 to 1 µM; IC50 [2, 6]: 1 to 5 µM"
CC1(C)CC(=O)C2=C(C1)Nc1n[nH]cc1[C@]21CCOC2(CCCC2)C1 [Compound 907327],,,"IC50 [1, 5]: 0.1 to 1 µM; IC50 [2, 6]: 1 to 5 µM"
CC[C@@H]1C[C@]2(CCO1)C1=C(CC(C)(C)CC1=O)Nc1n[nH]cc12 [Compound 907328],0.1 to 1 µM,1 to 5 µM,
CCC1(c2cccc(N(C)C(=O)CN3CCCC3)c2)C2=C(CC(C)(C)CC2=O)Nc2n[nH]cc21 (centres unmarked) [Compound 909202],0.1 to 1 µM,1 to 5 µM,
CCC1(c2cc(N3CCOCC3)ccc2F)C2=C(CC(C)(C)CC2=O)Nc2n[nH]cc21 (centres unmarked) [Compound 909203],0.1 to 1 µM,1 to 5 µM,
CC1(C)CC(=O)C2=C(C1)Nc1n[nH]cc1C21CCN(S(=O)(=O)C2CCCC2)CC1 [Compound 909206],≤ 0.1 µM,≤ 0.1 µM,"IC50 [1, 7]: ≤ 0.1 µM; IC50 [2, 8]: 0.1 to 1 µM"
CC1(C)CC(=O)C2=C(C1)Nc1n[nH]cc1C21CCN(S(=O)(=O)CC2CC2)CC1 [Compound 909207],,,"IC50 [1, 5]: ≤ 0.1 µM; IC50 [1, 7]: ≤ 0.1 µM; IC50 [2, 6]: ≤ 0.1 µM; IC50 [2, 8]: 0.1 to 1 µM"
O=C1CC2(CCC2)CC2=C1C1(CCOCC1)c1c[nH]nc1N2 [Compound 909208],,,"IC50 [1, 9]: ≤ 0.1 µM; IC50 [2, 10]: 0.1 to 1 µM"
CC1(C)CC(=O)C2=C(C1)Nc1n[nH]cc1C21CN(c2ccncn2)C1 [Compound 909209],1 to 5 µM,1 to 5 µM,
CC1(C)CC(=O)C2=C(C1)Nc1n[nH]cc1[C@]21C[C@H](OCc2ccccc2)C1 [Compound 909210],,,"IC50 [1, 9]: 0.1 to 1 µM; IC50 [2, 10]: 0.1 to 1 µM"
CC1(C)CC(=O)C2=C(C1)Nc1n[nH]cc1[C@]21C[C@@H](OCc2ccccc2)C1 [Compound 909211],,,"IC50 [1, 9]: ≤ 0.1 µM; IC50 [2, 10]: 0.1 to 1 µM"
CC[C@]1(c2ccccc2)C2=C(Nc3n[nH]cc31)[C@H](C)C[C@H](C)C2=O [Compound 909218],> 5 µM,> 5 µM,
CC[C@@]1(c2ccccc2)C2=C(Nc3n[nH]cc31)[C@H](C)C[C@H](C)C2=O [Compound 909219],> 5 µM,> 5 µM,
CC[C@@]1(c2cc(-c3cnn(C)c3)ccc2F)C2=C(CC(C)(C)CC2=O)Nc2n[nH]cc21 [Compound 909220],≤ 0.1 µM,0.1 to 1 µM,

# Now from value to compound, other results behind:
"IC50 [1, 3]","IC50 [2, 4]",Compound,also measured
0.1 to 1 µM,1 to 5 µM,CC[C@H]1C[C@@]2(CCO1)C1=C(CC(C)(C)CC1=O)Nc1n[nH]cc12 [Compound 907329],
≤ 0.1 µM,≤ 0.1 µM,CCC1(c2cccc(S(=O)(=O)C3CC3)c2)C2=C(CC(C)(C)CC2=O)Nc2n[nH]cc21 (centres unmarked) [Compound 909204],"IC50 ([2]; read-out: GSK3-B (TR-FRET 1 mM ATP), GMean, IC50, 1 mM ATP, geometric mean): 0.1 to 1 µM"
≤ 0.1 µM,≤ 0.1 µM,CCCC(C(C)=O)c1cccc(C2(CC)C3=C(CC(C)(C)CC3=O)Nc3n[nH]cc32)c1 (centres unmarked) [Compound 909205],
> 5 µM,> 5 µM,CC[C@]1(c2cc(-c3ccnc(C)c3)ccc2F)C2=C(CC(C)(C)CC2=O)Nc2n[nH]cc21 [Compound 909213],
≤ 0.1 µM,≤ 0.1 µM,CCN(C(C)=O)c1cccc([C@]2(CC)C3=C(CC(C)(C)CC3=O)Nc3n[nH]cc32)c1 [Compound 909214],
0.1 to 1 µM,1 to 5 µM,CCN(C(C)=O)c1cccc(C2(CC)C3=C(CC(C)(C)CC3=O)Nc3n[nH]cc32)c1 (centres unmarked) [Compound 909215],
0.1 to 1 µM,0.1 to 1 µM,CC[C@@]1(c2ccccc2)C2=C(Nc3n[nH]cc31)[C@@H](C)C[C@@H](C)C2=O [Compound 909216],
0.1 to 1 µM,1 to 5 µM,CC[C@]1(c2ccccc2)C2=C(Nc3n[nH]cc31)[C@@H](C)C[C@@H](C)C2=O [Compound 909217],

# Reference: patent US20250313563A1, “GLYCOGEN SYNTHASE KINASE 3 INHIBITORS AND USES THEREOF” (The Broad Institute, Inc., priority 2022, published 2025)
